Reference: patent US11149016B2, “S-substituted-2-amino-3-mercaptopropionate derivative, preparation method and application thereof” (JIANGSU TASLY DIYI PHARMACEUTICAL CO., LTD., priority 2016, dated 2021)

Test system: mice with memory disorders caused by scopolamine
Assay: Passive avoidance (darkroom) test in mice with scopolamine-injured memory
Format: in vivo, ICR mice
Conditions: for Error times (number of times entering the darkroom within 3 minutes) / Latency (s) of entering the darkroom: intragastric, 7 days, scopolamine 3 mg/kg 20 minutes before testing, x ± s, n = 10; for Activity compared with SPRC (in words) / Effect on error times of mice with memory impairment entering the darkroom (in words) / Effect on latency of mice with memory impairment entering the darkroom (in words): passive avoidance test, scopolamine model
Text: Memory functions of mice are injured by scopolamine, and effects of improvement of tested materials on the memory functions of the mice are observed.
Animals: ICR mice, male, 20-22 g, purchased from Institute for Experimental Animals in Chinese Academy of Medical Sciences, certification number: SCXK (JING) 2014-0004.
Agent: scopolamine (J&K Company), donepezil reagent (TCI Company).
Tested materials: 4 tested materials and a positive-drug donepezil are provided by Tasly Group. Dosage of administration: administered by tested materials according to 80 mg/kg weight, administered by donepezil according to 5 mg/kg weight, an administration volume of 2 ml.
purchasing 60 mice, and enabling the mice to adapt to an environment for three days; dividing the mice into 6 groups randomly, wherein a blank control group includes 10 mice, the rest mice are contained in administration groups, and each administration group includes 10 mice; respectively administering the tested materials and positive drug, performing intragastric administration for 7 days, putting the mice into a darkroom to adapt to the environment on the fifth day during administration, electrifying the darkroom on the sixth day during administration, training the mice to elude the darkroom, and training each mouse once; testing on the seventh day, administering with scopolamine by 3 mg/kg within 20 minutes before testing, and recording time of the mice entering the darkroom for the first time and a number of times of the mice entering the darkroom within 3 minutes during testing.
Passive avoidance response is a common method used commonly to detect learning and memory functions of small animals. With respect to a passive avoidance test, by means of a feature that rodents like darkness and keep in a dark place, the rodents are stimulated in the dark to escape to a bright place to acquire memory, and the passive avoidance test is a type of passive avoidance response experiments. The passive avoidance test has a short experimental period and is applicable to rapid drug screening. The scopolamine may inhibit release of acetyl choline, so as to form learning and memory disorders. The passive avoidance test is a stable learning and memory disorder modeling method and has excellent model reproducibility.

[1] = positive drug donepezil 5 mg/kg
[2] = tested materials 80 mg/kg, time of first entry into darkroom

Question: Which “Error times (number of times entering the darkroom within 3 minutes)” value [1] does the source give for `COc1cc2c(cc1OC)C(=O)C(CC1CCN(Cc3ccccc3)CC1)C2` (centres unmarked) [Donepezil, donepezil, reference compound] here?
Answer: Its value is 6.8 ± 5.4.

Question: And the “Latency (s) of entering the darkroom” value [1]?
Answer: The value was 49.5 ± 71.6 s.

Question: What does the source list for `C#CCSCC(N)C(=O)Oc1ccc(CO)cc1` (centres unmarked) [Vc, 2-amino-3-propinylmercaptopropionic acid-4-benzyl alcohol phenol ester]?
Answer: Activity compared with SPRC (in words): obviously better than the activity of the SPRC; Effect on error times of mice with memory impairment entering the darkroom (in words): trend of decreasing the error times; Effect on latency of mice with memory impairment entering the darkroom (in words): trend of increasing the latency; Latency (s) of entering the darkroom [2]: 66.8 ± 57.1 s; Error times (number of times entering the darkroom within 3 minutes) (tested materials 80 mg/kg): 2.4 ± 1.3

Question: With `C#CCSCC(N)C(=O)Oc1ccc(-c2cc(=S)ss2)cc1` (centres unmarked) [Va, 2-amino-3-propinylmercaptopropionic acid-4-(3-thio-3H-1,2-dithio-5-alkenyl) phenol ester] as the compound, how does the “Latency (s) of entering the darkroom” value [2] read?
Answer: The value was 55.8 ± 61.3 s.

Question: And the “Error times (number of times entering the darkroom within 3 minutes)” value (tested materials 80 mg/kg)?
Answer: Its value is 4.7 ± 4.6.

Question: Which results are given for `C#CCSCC(N)C(=O)OCc1ccc(OC(=O)C(N)CSCC#C)cc1` (centres unmarked) [Vd, bis(2-amino-3-propinylmercaptopropionic acid)-4-benzyl alcohol-1-phenol diester]?
Answer: Activity compared with SPRC (in words): obviously better than the activity of the SPRC; Effect on error times of mice with memory impairment entering the darkroom (in words): trend of decreasing the error times; Effect on latency of mice with memory impairment entering the darkroom (in words): trend of increasing the latency; Latency (s) of entering the darkroom [2]: 63.6 ± 69.5 s; Error times (number of times entering the darkroom within 3 minutes) (tested materials 80 mg/kg): 2.6 ± 3.3

Question: Which “Latency (s) of entering the darkroom” value [2] does the source give for `C#CCSCC(N)C(=O)Oc1ccc(C=O)cc1` (centres unmarked) [Vb, 2-amino-3-propinylmercaptopropionic acid-4-formyl phenol ester] here?
Answer: The value was 53.2 ± 59.4 s.

Question: And the “Error times (number of times entering the darkroom within 3 minutes)” value (tested materials 80 mg/kg)?
Answer: Its value is 4.1 ± 3.7.

Question: Which “Latency (s) of entering the darkroom” value [2] does the source give for `C#CCSC[C@H](N)C(=O)O` [SPRC, S-propargyl-cysteine, reference compound] here?
Answer: Its value is 50.5 ± 69.7 s.

Question: What about the “Error times (number of times entering the darkroom within 3 minutes)” value (tested materials 80 mg/kg) of the same compound?
Answer: The value was 3.8 ± 4.0.

Question: `C#CCSCC(N)C(=O)OCCCC[N+](=O)[O-]` (centres unmarked) [Vf, 2-amino-3-propinylmercaptopropionic acid-4-nitro-1-butanol ester] was tested. Which “Activity compared with SPRC (in words)” value did it give?
Answer: Its value is “obviously better than the activity of the SPRC”.

Question: What about the “Effect on error times of mice with memory impairment entering the darkroom (in words)” value of the same compound?
Answer: Its value is “trend of decreasing the error times”.

Question: What about the “Effect on latency of mice with memory impairment entering the darkroom (in words)” value of the same compound?
Answer: Its value is “trend of increasing the latency”.

Question: What about the “Latency (s) of entering the darkroom” value [2] of the same compound?
Answer: Its value is 60.2 ± 61.3 s.

Question: What about the “Error times (number of times entering the darkroom within 3 minutes)” value (tested materials 80 mg/kg) of the same compound?
Answer: The value was 2.4 ± 2.3.
